# Measured values published in ChEMBL document CHEMBL1131966, “On topography and functionality in the B-D rings of cephalostatin cytotoxins” (Bioorg Med Chem Lett, 1999).
# pEC50, pIC50: −log10 of the molar value.
# Assays:
# [1] = tested on: P388; experiment: In vitro cytotoxicity against P388 leukemic cell line following a 6 day exposure.; assay type: functional, cell-based; settings: Mus musculus, P388, 144 h
# [2] = tested on: A549; experiment: In vitro cytotoxicity against Lung A-549 human tumors following a 2 day exposure.; assay type: functional; settings: A549, 48 h
# [3] = tested on: A498; experiment: In vitro cytotoxicity against Renal A-498 human tumors following a 2 day exposure.; assay type: functional; settings: A498, 48 h
# [4] = tested on: SF-295; experiment: In vitro cytotoxicity against CNS SF-295 human tumors following a 2 day exposure.; assay type: functional; settings: SF-295, 48 h
# [5] = tested on: HT-29; experiment: In vitro cytotoxicity against Colon HT-29 human tumors following a 6 day exposure.; assay type: functional; settings: HT-29, 144 h, read-out: ED50 (the source's name)
# [6] = tested on: HL-60; experiment: In vitro cytotoxicity against HL-60 leukemia human tumors following a 2 day exposure.; assay type: functional; settings: HL-60, 48 h
# [7] = tested on: HT-29; experiment: In vitro cytotoxicity against Colon HT-29 human tumors following a 2 day exposure.; assay type: functional; settings: HT-29, 48 h
# [8] = species: Homo sapiens; experiment: In vitro cytotoxicity against Breast avg 1-3 types of human tumors following a 6 day exposure.; assay type: functional; settings: 144 h, read-out: ED50 (the source's name)
# [9] = tested on: IGROV-1; experiment: In vitro cytotoxicity against Ovary IGROVIg OVI human tumors following a 2 day exposure.; assay type: functional; settings: IGROV-1, 48 h
# [10] = tested on: LOX IMVI; experiment: In vitro cytotoxicity against Skin LOX IMVI human tumors following a 2 day exposure.; assay type: functional; settings: 48 h
# [11] = tested on: MCF7; experiment: In vitro cytotoxicity against Breast MCF-7 human tumors following a 2 day exposure.; assay type: functional; settings: 48 h
# [12] = tested on: Panel NCI-60 (60 carcinoma cell lines); experiment: In vitro cytotoxicity against a subset of 60 cell lines (NCI-60) in human tumors following a 2 day exposure. Values in parentheses is the % cell lines affected.; assay type: functional; settings: 48 h
# [13] = tested on: NCI; experiment: In vitro cytotoxicity against a subset of 10 cell lines (NCI-10) in human tumors following a 2 day exposure. Values in parentheses is the % cell lines affected.; assay type: functional; settings: 48 h
# [14] = tested on: PC-3; experiment: In vitro cytotoxicity against prostate PC-3 human tumors following a 2 day exposure.; assay type: functional; settings: PC-3, 48 h
# [15] = tested on: RXF 393; experiment: In vitro cytotoxicity against Renal RXF-393 human tumors following a 2 day exposure.; assay type: functional; settings: RXF 393, 48 h
# [16] = species: Homo sapiens; experiment: In vitro cytotoxicity against various human tumors (6-8 lines) as determined in the Purdue cell culture laboratory, following a 6 day exposure; assay type: functional; settings: 144 h, read-out: ED50 (the source's name)
# [17] = (§1) In vitro cytotoxicity against […] PACA-2 human tumors following a 6 day exposure; assay type: functional; settings: PaCa-2, 144 h, read-out: ED50 (the source's name)
# [18] = tested on: PC-3; experiment: In vitro cytotoxicity against prostate PC-3 human tumors following a 6 day exposure; assay type: functional; settings: PC-3, 144 h, read-out: ED50 (the source's name)
# [19] = tested on: A498; experiment: In vitro cytotoxicity against Renal A-498 human tumors following a 6 day exposure.; assay type: functional; settings: A498, 144 h, read-out: ED50 (the source's name)
# [20] = tested on: A549; experiment: In vitro cytotoxicity against Lung A-549 human tumors following a 6 day exposure.; assay type: functional; settings: A549, 144 h, read-out: ED50 (the source's name)
# [21] = tested on: MIA PaCa-2; experiment: as §1; assay type: functional; settings: MIA PaCa-2, 144 h, read-out: ED50 (the source's name)
# [22] = tested on: NCI; experiment: In vitro cytotoxicity against a subset of 10 cell lines (NCI-10) in human tumors following a 2 day exposure; ND is no data; assay type: functional; settings: 48 h
SMILES,pIC50 [1],GI50 [2],GI50 [3],GI50 [4],pEC50 [5],GI50 [6],GI50 [7],pEC50 [8],GI50 [9],GI50 [10],GI50 [11],GI50 [12],GI50 [13],GI50 [14],GI50 [15],other results
CC(=O)O[C@H]1CC2Cc3nc4c(nc3C[C@]2(C)C2C[C@@H](O)[C@@]3(C)C(=CC5O[C@]6(CC[C@](C)(O)CO6)[C@@H](C)C53O)C21)CC1CCC2C(C[C@@H](O)[C@@]3(C)C2CC2OC5(CCC(C)(C)O5)[C@@H](C)C23)[C@@]1(C)C4 (stereo partly specified),7.02,,,,,,,,,,,,,,,
C[C@H]1C2C(CC3C4CCC5Cc6nc7c(nc6C[C@]5(C)C4CC(=O)[C@@]32C)CC2CC(=O)C3C4=CC5O[C@]6(CC[C@](C)(O)CO6)[C@@H](C)C5(O)[C@@]4(C)[C@H](O)CC3[C@@]2(C)C7)OC12CCC(C)(C)O2 (stereo partly specified),7.72,,,,,,,,,,,,,,,
CC1C2(O)C(C=C3C4CCC5Cc6nc7c(nc6C[C@]5(C)C4C[C@@H](O)[C@@]32C)CC2CCC3C4=CC5OC6(CCC(C)(C)O6)[C@@H](C)C5[C@@]4(C)[C@H](O)CC3[C@@]2(C)C7)O[C@]12CC[C@](C)(O)CO2 (stereo partly specified),,76 nM,0.55 nM,1.2 nM,10.92,1.2 nM,> 650 nM,10.44,> 1000 nM,12 nM,37 nM,> 34 nM,4.2 nM,12 nM,0.55 nM,
C[C@@H]1C2(OC3C=C4C5CCC6Cc7nc8c(nc7C[C@]6(C)C5C[C@@H](O)[C@]4(C)C31O)CC1CCC3C4=CCC5[C@H](C)[C@@]6(OC[C@]45[C@H](O)CC3[C@@]1(C)C8)OC(C)(C)C[C@H]6O)O[C@](C)(CO)C[C@H]2O (stereo partly specified),,,,,11.92,,,11.96,,,,,,,,
C[C@H]1C2C(C[C@H]3C4CCC5Cc6nc7c(nc6C[C@]5(C)C4C[C@@H](O)[C@]23C)CC2CCC3C4=CC5O[C@]6(CC[C@](C)(O)CO6)[C@@H](C)C5(O)[C@@]4(C)[C@H](O)CC3[C@@]2(C)C7)OC12CCC(C)(C)O2 (stereo partly drawn) [14-EPI-7'-DEOXYRITTERAZINE B],,76 nM,> 300 nM,9.3 nM,,> 660 nM,> 650 nM,,> 1000 nM,45 nM,56 nM,> 105 nM,> 55 nM,40 nM,4.1 nM,
C[C@@H]1[C@]2(O[C@H]3C=C4[C@@H]5CC[C@H]6Cc7nc8c(nc7C[C@]6(C)[C@H]5C[C@@H](O)[C@]4(C)[C@]31O)C[C@@H]1CC[C@H]3C4=CC[C@@H]5[C@H](C)[C@@]6(OC[C@]45C(=O)C[C@@H]3[C@@]1(C)C8)OC(C)(C)C[C@H]6O)O[C@](C)(CO)C[C@H]2O [CEPHALOSTATIN 1],,0.4 nM,< 0.1 nM,< 0.1 nM,,0.2 nM,6.3 nM,,10 nM,0.4 nM,2.5 nM,1.2 nM,0.8 nM,< 0.1 nM,< 0.1 nM,
C[C@@H]1[C@]2(O[C@H]3C=C4[C@@H]5CC[C@H]6Cc7nc8c(nc7C[C@]6(C)[C@H]5C[C@@H](O)[C@]4(C)[C@]31O)C[C@@H]1CC[C@H]3C4=C[C@@H]5O[C@]6(CC[C@](C)(O)CO6)C[C@]5(O)[C@@]4(C)[C@H](O)C[C@@H]3[C@@]1(C)C8)O[C@](C)(CO)C[C@H]2O [CEPHALOSTATIN 7],,138 nM,31 nM,11 nM,7.52,25 nM,271 nM,7.42,480 nM,37 nM,27 nM,50 nM,16 nM,23 nM,7.9 nM,pEC50 [16]: 10.28; pEC50 [17]: 9.39; pEC50 [18]: 11.68
C[C@@H]1C2(OC3C=C4C5CCC6Cc7nc8c(nc7C[C@]6(C)C5C[C@@H](O)[C@]4(C)C31O)CC1CCC3C(CC(=O)[C@]45CO[C@@]6(OC(C)(C)C[C@H]6O)[C@@H](C)C4CCC35)[C@@]1(C)C8)O[C@](C)(CO)C[C@H]2O (stereo partly specified) [DIHYDROCEPHALOSTATIN 1],,0.59 nM,3.6 nM,< 0.1 nM,,0.12 nM,1.1 nM,,2.9 nM,0.17 nM,3.5 nM,2.4 nM,0.8 nM,0.22 nM,< 0.1 nM,
COc1cccc2c1C(=O)c1c(O)c3c(c(O)c1C2=O)C[C@@](O)(C(=O)CO)C[C@@H]3O[C@H]1C[C@H](N)[C@H](O)[C@H](C)O1 [DOXORUBICIN],,,,,7.43,,,6.82,,,,,,,,pEC50 [19]: 8.46; pEC50 [20]: 8.21; pEC50 [16]: 7.73; pEC50 [21]: 8.20; pEC50 [18]: 7.24
C[C@@H]1[C@@]2(CC[C@](C)(O)CO2)O[C@H]2C=C3[C@@H]4[C@@H](O)C[C@H]5Cc6nc7c(nc6C[C@]5(C)[C@H]4C[C@@H](O)[C@]3(C)[C@]21O)C[C@@H]1CC[C@H]2[C@H]3C[C@@H]4O[C@@]5(CCC(C)(C)O5)C[C@@H]4[C@@]3(C)[C@H](O)C[C@@H]2[C@@]1(C)C7 [RITTERAZINE B],9.77,,,< 0.1 nM,,0.16 nM,,11.68,,,,,,,< 0.1 nM,GI50 [22]: 1 nM
C[C@@H]1[C@@]2(CC[C@](C)(O)CO2)O[C@H]2C=C3[C@@H]4[C@@H](O)C[C@H]5Cc6nc7c(nc6C[C@]5(C)[C@H]4C[C@@H](O)[C@]3(C)[C@]21O)C[C@@H]1CC[C@H]2[C@H]3C[C@@H]4O[C@@]5(CCC(C)(C)O5)C[C@@H]4[C@@]3(C)C(=O)C[C@@H]2[C@@]1(C)C7 [RITTERAZINE H],7.74,,,,,,,,,,,,,,,
C[C@@H]1[C@@]2(CC[C@](C)(O)CO2)O[C@H]2C=C3[C@@H]4[C@@H](O)C[C@H]5Cc6nc7c(nc6C[C@]5(C)[C@H]4C[C@@H](O)[C@]3(C)[C@]21O)C[C@@H]1CC[C@H]2C3=C[C@@H]4O[C@]5(CC[C@@](C)(O)CO5)[C@@H](C)[C@]4(O)[C@@]3(C)[C@H](O)C[C@@H]2[C@@]1(C)C7 [RITTERAZINE J],7.85,,,,,,,,,,,,,,,
C[C@@H]1[C@@]2(CC[C@](C)(O)CO2)O[C@H]2C=C3[C@H]4CC[C@H]5Cc6nc7c(nc6C[C@]5(C)[C@H]4C[C@@H](O)[C@]3(C)[C@]21O)C[C@@H]1CC[C@H]2C3=C[C@@H]4O[C@]5(CC[C@@](C)(O)CO5)[C@@H](C)[C@]4(O)[C@@]3(C)[C@H](O)C[C@@H]2[C@@]1(C)C7 [RITTERAZINE K],8.00,110 nM,190 nM,4.1 nM,7.55,4.4 nM,288 nM,7.96,347 nM,20 nM,100 nM,96 nM,4.5 nM,91 nM,1.4 nM,pEC50 [16]: 10.33; pEC50 [21]: 10.29; pEC50 [18]: 11.68
C[C@@H]1C2(OC3C=C4C5CCC6Cc7nc8c(nc7C[C@]6(C)C5C[C@@H](O)[C@]4(C)C31O)CC1CCC3C4=CC5OC6(CCC(C)(C)O6)[C@@H](C)C5[C@@]4(C)[C@H](O)CC3[C@@]1(C)C8)O[C@](C)(CO)C[C@H]2O (stereo partly specified) [RITTEROSTATIN],,7.4 nM,3 nM,0.99 nM,,1.6 nM,65 nM,,140 nM,9.7 nM,3.4 nM,14 nM,3.8 nM,1.8 nM,0.1 nM,
